Assay results as given in paper PMC4293281 (Bioorganic & medicinal chemistry, 2014).
In brackets after ≈: the same amount, converted by molar mass.

What was measured:
SV40 T Ag = SV40 T Ag (Simian virus 40, UniProt P03070); assay: steady state ATPase assay with SV40 T Ag; assay type: biochemical; conditions: for inhibition of SV40 T Ag ATPase activity at 100 μM: final concentration 100 μM, percent activity relative to T Ag without inhibitor
SV40 = SV40 viral DNA replication assay in CV1 cells; assay type: cell-based, Simian Virus 40 in CV1 monkey kidney cells; conditions: monkey kidney cells, range of concentrations
[1] = aqueous solubility by LC-HRMS; assay type: physicochemical; conditions: distilled water, 30 °C, thermodynamic from solid
[2] = biological target: human Hsp70 in the presence of a J domain containing yeast protein (Hlj1) (Homo sapiens, UniProt P0DMV8); assay: steady state ATPase assay, Hsp70 stimulated by J domain protein Hlj1; assay type: biochemical
human Hsp70 in the presence of a J domain containing yeast protein (Hlj1), sequence (P0DMV8 whole entry): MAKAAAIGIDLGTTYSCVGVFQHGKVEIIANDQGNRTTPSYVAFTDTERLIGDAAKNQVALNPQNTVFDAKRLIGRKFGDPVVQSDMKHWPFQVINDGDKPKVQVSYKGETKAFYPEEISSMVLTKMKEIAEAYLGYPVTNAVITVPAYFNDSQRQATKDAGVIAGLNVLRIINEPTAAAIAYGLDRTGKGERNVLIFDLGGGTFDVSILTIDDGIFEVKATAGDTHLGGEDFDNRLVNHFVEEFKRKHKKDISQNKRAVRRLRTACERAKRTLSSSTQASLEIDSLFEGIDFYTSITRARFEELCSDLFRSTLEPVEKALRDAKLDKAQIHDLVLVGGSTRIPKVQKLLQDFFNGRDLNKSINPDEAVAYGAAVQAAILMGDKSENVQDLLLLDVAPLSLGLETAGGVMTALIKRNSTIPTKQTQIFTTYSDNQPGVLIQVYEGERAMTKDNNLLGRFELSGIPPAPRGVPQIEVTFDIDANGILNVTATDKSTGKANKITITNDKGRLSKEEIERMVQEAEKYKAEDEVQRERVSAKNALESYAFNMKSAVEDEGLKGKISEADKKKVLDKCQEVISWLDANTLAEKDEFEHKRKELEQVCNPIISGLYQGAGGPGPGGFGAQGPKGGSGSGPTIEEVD

[3] = compound stability in male mouse liver microsomes; assay type: in vitro ADME
[4] = biological target: human Hsp70 in the presence of a human J domain-containing protein (Hdj2) (Homo sapiens, UniProt P0DMV8); assay: steady state ATPase assay, Hsp70 stimulated by J domain protein Hdj2; assay type: biochemical; conditions: 100 μM versus DMSO control, 60-min time course
human Hsp70 in the presence of a human J domain-containing protein (Hdj2), sequence (P0DMV8 whole entry): as above

human Hsp70 = human Hsp70 (Homo sapiens, UniProt P0DMV8); assay: steady state ATPase assay with human Hsp70; assay type: biochemical
human Hsp70, sequence (P0DMV8 whole entry): as above

HEK293 cells = assay: HEK293 cell viability; assay type: cell-based, human; conditions: 20 h incubation, Cell Titer-Glo

SV40 T Ag, sequence (P03070 whole entry): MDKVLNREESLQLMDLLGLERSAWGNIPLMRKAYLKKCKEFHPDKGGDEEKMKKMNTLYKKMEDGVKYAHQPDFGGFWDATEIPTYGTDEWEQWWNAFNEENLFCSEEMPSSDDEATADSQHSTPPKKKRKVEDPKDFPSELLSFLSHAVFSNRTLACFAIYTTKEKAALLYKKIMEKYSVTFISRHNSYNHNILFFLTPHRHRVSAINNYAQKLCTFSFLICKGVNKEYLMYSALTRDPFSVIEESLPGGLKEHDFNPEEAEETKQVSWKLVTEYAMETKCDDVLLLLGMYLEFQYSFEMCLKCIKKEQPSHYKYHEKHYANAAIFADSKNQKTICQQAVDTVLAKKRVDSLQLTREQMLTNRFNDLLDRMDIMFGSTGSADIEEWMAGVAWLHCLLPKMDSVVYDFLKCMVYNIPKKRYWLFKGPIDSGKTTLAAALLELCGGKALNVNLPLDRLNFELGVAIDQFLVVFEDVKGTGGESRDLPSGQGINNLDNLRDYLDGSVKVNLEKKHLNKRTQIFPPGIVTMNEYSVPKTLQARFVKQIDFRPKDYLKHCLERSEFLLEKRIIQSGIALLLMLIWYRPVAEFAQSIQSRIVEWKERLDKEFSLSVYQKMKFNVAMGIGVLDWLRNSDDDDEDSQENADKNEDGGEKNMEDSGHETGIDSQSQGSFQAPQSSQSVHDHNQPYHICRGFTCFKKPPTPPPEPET

CC1=C(C(=O)OCc2ccccc2)C(c2ccc(-c3ccccc3C)cc2)NC(=O)N1CCCCCc1nnn[nH]1 (stereo not drawn) [LR340-006, Benzyl 1-(5-(1H-tetrazol-5-yl)pentyl)-6-methyl-4-(2′-methyl-[1,1′-biphenyl]-4-yl)-2-oxo-1,2,3,4-tetrahydropyrimidine-5-carboxylate]
IC50 (SV40 T Ag): ~50 µM | inhibition of SV40 T Ag ATPase activity, titration (SV40 T Ag; titration at 10, 30 and 100 μM): most potent

CC1=C(C(=O)OCc2ccccc2)C(c2ccc(-c3ccccc3)cc2)NC(=O)N1Cc1ccc(-c2nnn[nH]2)cc1 (stereo not drawn) [ML282-56, Benzyl 1-(4-(1H-tetrazol-5-yl)benzyl)-4-([1,1′-biphenyl]-4-yl)-6-methyl-2-oxo-1,2,3,4-tetrahydropyrimidine-5-carboxylate]
inhibition of SV40 replication (viral DNA by qPCR) (SV40): inhibited viral replication | IC50 (SV40 T Ag): ~50 µM | inhibition of SV40 T Ag ATPase activity at 100 μM (SV40 T Ag): inhibited T Ag ATPase activity | solubility at 24 h [1]: 14.4 ± 0.5 µg/mL (≈ 25.9 µM)

CC1=C(C(=O)OCc2ccccc2)C(c2ccc(-c3ccccc3)cc2)NC(=O)N1CCCCCC(=O)NS(C)(=O)=O (stereo not drawn) [ML282-66, Benzyl 4-([1,1′-biphenyl]-4-yl)-6-methyl-1-(6-(methylsulfonamido)-6-oxohexyl)-2-oxo-1,2,3,4-tetrahydropyrimidine-5-carboxylate]
inhibition of SV40 T Ag ATPase activity at 100 μM (SV40 T Ag): inhibited T Ag ATPase activity | inhibition of SV40 T Ag ATPase activity at 30 μM (SV40 T Ag; titration, 30 μM): reduced compared to ML282-56

CC1=C(C(=O)OCc2ccccc2)C(c2ccc(-c3ccccc3C)cc2)NC(=O)N1Cc1ccc(-c2nnn[nH]2)cc1 (stereo not drawn) [SMAL, Benzyl 1-(4-(1H-tetrazol-5-yl)benzyl)-6-methyl-4-(2′-methyl-[1,1′-biphenyl]-4-yl)-2-oxo-1,2,3,4-tetrahydropyrimidine-5-carboxylate]
IC50 [2]: > 30 µM | inhibition of SV40 replication (viral DNA by qPCR) (SV40): inhibited viral replication | compound remaining after 60 min incubation ([3]; male mouse liver microsomes, NADPH, 1 h): ~ 68% | stability in liver microsomes ([3]; murine liver microsomes): quite stable | IC50 (SV40 T Ag): ~5 µM | inhibition of Hdj2 activation of Hsp70 ATPase [4]: stronger than MAL2-11B tetrazole | IC50 (human Hsp70): ~24 µM | inhibition of endogenous Hsp70 ATPase activity at 30 μM (human Hsp70; final concentration 30 μM versus DMSO control): inhibited the endogenous activity of Hsp70 | solubility at 24 h [1]: 62.4 ± 3.1 µg/mL (≈ 109 µM)

CN[C@@H]1C[C@H]2O[C@@](C)([C@@H]1OC)n1c3ccccc3c3c4c(c5c6ccccc6n2c5c31)C(=O)NC4 [Staurosporine]
LD50 (HEK293 cells): < 3 µM
